According to patent publication US4761403A, “Lipoxygenase inhibiting compounds” (Abbott Laboratories, priority 1986, dated 1988):

Experiments:
Type in all cases: biochemical
5-lipoxygenase = molecular target: T1, 5-lipoxygenase (Rattus norvegicus, UniProt P12527); test: 5-lipoxygenase inhibition, 20,000 g supernatant from homogenized RBL-1 cells, radiolabeled arachidonic acid; conditions: for IC50: 5-lipoxygenase, RBL-1 supernatant, 50% intercept from linear regression of % inhibition vs log concentration
T1 construct: 20,000 g supernatant from 7.5 million homogenized RBL-1 cells; endogenous in cells; host or cells: RBL-1 cells, 20,000 g supernatant of homogenate
T1 sequence (P12527 1-673): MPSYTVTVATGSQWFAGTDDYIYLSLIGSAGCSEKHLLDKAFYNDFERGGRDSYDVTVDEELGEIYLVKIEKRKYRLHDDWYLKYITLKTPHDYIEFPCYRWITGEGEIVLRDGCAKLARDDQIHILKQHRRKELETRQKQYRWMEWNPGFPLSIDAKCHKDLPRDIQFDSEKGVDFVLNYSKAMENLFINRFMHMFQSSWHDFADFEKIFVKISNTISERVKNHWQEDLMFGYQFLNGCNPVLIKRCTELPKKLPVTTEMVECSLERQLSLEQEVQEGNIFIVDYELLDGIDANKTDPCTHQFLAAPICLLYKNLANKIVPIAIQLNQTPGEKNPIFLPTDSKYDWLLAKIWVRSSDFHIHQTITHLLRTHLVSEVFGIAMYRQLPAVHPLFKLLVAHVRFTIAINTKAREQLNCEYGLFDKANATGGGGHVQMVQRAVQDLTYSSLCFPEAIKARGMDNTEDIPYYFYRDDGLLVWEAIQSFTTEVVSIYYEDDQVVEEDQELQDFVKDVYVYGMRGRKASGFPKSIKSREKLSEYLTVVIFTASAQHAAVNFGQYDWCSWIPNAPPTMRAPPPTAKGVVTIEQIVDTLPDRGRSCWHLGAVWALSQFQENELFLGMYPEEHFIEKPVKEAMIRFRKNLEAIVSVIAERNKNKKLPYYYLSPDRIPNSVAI
Description: (§1) The compounds of this invention are potent inhibitors of 5-, 12-, and 15-lipoxygenases. An assay to determine 5-lipoxygenase activity was performed in incubations containing various concentrations of the test compound and the 20,000 g supernatant from 7.5 million homogenized RBL-1 cells. Reactions were initiated by addition of radiolabeled arachidonic acid and terminated by acidification and ether extraction. Reaction products were separated from nonconverted substrate by thin layer chromatography and measured by liquid scintillation spectroscopy. Inhibition of 5-lipoxygenase activity was calculated as the 50% intercept from linear regression analysis of percentage inhibition versus log concentration plots.

12-lipoxygenase = molecular target: T2, 12-lipoxygenase (Homo sapiens, UniProt P18054); test: 12-lipoxygenase inhibition, enzyme obtained from human platelets; conditions: read-out: Percent Inhibition, 12-Lipoxygenase
T2 construct: 12-lipoxygenase obtained from human platelets; from tissue; host or cells: human platelets
T2 sequence (P18054 1-663): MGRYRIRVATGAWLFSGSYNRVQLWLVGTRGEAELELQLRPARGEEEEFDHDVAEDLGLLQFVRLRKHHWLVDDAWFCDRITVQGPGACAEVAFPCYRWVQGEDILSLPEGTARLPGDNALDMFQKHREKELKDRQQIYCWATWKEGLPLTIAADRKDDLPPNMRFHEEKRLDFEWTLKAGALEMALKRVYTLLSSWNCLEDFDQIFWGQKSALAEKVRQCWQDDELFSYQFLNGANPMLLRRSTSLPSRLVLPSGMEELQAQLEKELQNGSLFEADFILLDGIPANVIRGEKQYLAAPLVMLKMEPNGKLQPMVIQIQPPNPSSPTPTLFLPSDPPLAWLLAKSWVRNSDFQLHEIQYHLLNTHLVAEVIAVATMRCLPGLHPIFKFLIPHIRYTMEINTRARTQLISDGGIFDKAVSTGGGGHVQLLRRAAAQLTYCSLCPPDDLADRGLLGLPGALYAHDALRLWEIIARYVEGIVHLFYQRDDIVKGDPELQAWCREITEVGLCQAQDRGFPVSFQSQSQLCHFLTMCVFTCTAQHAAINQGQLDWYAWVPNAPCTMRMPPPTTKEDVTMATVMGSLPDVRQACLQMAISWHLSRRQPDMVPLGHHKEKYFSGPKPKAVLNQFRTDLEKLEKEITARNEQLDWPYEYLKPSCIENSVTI
Description: as §1
(§2) Inhibitory activities of the compounds of this invention against 12- and 15-lipoxygenase can be determined in the foregoing assay in which 12-lipoxygenase obtained from human platelets, or 15-lipoxygenase obtained from soybean, is substituted for the […] containing cell supernatant fraction.

15-lipoxygenase = molecular target: T3, 15-lipoxygenase (Glycine max, UniProt P08170); test: 15-lipoxygenase inhibition, enzyme obtained from soybean; conditions: read-out: Percent Inhibition, 15-lipoxygenase
T3 construct: 15-lipoxygenase obtained from soybean; from tissue; host or cells: soybean
T3 sequence (P08170 1-839): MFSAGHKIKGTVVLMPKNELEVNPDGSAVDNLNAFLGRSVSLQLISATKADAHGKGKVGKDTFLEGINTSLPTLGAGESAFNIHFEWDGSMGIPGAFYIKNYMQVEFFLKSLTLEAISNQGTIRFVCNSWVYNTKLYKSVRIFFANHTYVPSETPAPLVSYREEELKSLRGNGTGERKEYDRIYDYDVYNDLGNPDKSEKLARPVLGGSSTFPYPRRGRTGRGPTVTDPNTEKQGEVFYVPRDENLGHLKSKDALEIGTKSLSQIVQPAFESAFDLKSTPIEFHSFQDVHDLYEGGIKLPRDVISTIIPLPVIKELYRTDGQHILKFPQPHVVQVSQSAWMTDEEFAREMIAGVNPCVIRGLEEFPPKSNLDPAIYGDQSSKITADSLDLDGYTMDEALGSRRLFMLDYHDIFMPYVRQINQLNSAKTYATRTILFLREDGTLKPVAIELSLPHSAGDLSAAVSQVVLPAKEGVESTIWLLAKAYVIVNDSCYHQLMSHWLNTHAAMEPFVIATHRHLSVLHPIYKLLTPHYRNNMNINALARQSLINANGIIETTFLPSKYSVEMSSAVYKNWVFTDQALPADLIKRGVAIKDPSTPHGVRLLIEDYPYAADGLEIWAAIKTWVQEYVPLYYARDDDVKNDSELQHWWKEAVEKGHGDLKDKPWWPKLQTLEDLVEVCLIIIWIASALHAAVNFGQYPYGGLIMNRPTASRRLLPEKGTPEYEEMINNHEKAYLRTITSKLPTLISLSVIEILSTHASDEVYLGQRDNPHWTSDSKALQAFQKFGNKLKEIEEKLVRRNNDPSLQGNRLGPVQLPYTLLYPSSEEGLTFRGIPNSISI
Description: as §1, §2

Compound	IC50 (5-lipoxygenase) [nM]	inhibition at 10 µM (12-lipoxygenase) [%]	inhibition at 100 µM (12-lipoxygenase) [%]	inhibition at 10 µM (15-lipoxygenase) [%]	inhibition at 100 µM (15-lipoxygenase) [%]	inhibition at 100 µM (5-lipoxygenase; @ 100 uM, read-out: percentage inhibition of 5-lipoxygenase) [%]	inhibition at 30 µM (5-lipoxygenase; @ 30 uM, read-out: percentage inhibition of 5-lipoxygenase) [%]
O=c1ccc2ccccc2n1O [Example 1, 1-hydroxyquinol-2-(1H)-one]	5300	93	98	59	95	–	–
COC(=O)c1cc2ccccc2n(O)c1=O [Example 2, 3-Carbomethoxy-1-hydroxyquinol-2(1H)-one]	24000	66	94	5	14	–	–
O=c1c(Br)cc2ccccc2n1O [Example 3, 3-Bromo-1-hydroxyquinol-2-(1H)-one]	4200	–	–	–	–	–	–
Cc1cc(=O)n(O)c2ccccc12 [Example 4, 4-Methyl-1-hydroxyquinol-2(1H)-one]	1400	–	–	–	–	–	–
COc1ccc2c(c1)c(Cl)cc(=O)n2O [Example 5, 4-Chloro-6-methoxy-1-hydroxyquinol-2(1H)-one]	1600	–	–	–	–	–	–
O=c1ccc2c([N+](=O)[O-])cccc2n1O [Example 6, 5-Nitro-1-hydroxyquinol-2(1H)-one]	3700	83	98	27	98	–	–
Cc1ccc2c(ccc(=O)n2O)c1[N+](=O)[O-] [Example 7, 6-Methyl-5-nitro-1-hydroxyquinol-2(1H)-one]	2000	–	–	–	–	–	–
O=c1ccc2cc(Cl)ccc2n1O [Example 8, 6-Chloro-1-hydroxyquinol-2(1H)-one]	870	95	97	95	100	–	–
Cc1ccc2c(ccc(=O)n2O)c1 [Example 9, 6-Methyl-1-hydroxyquinol-2-(1H)-one]	1100	–	–	–	–	–	–
COc1ccc2c(ccc(=O)n2O)c1 [Example 10, 6-Methoxy-1-hydroxyquinol-2-(1H)-one]	1500	90	97	62	94	–	–
O=c1ccc2cc([N+](=O)[O-])ccc2n1O [Example 11, 6-Nitro-1-hydroxyquinol-2(1H)-one]	14000	67	90	2	32	–	–
O=c1ccc2cc(-c3ccccc3)ccc2n1O [Example 12, 6-Phenyl-1-hydroxyquinol-2(1H)-one]	340	97	98	97	100	–	–
Cc1ccc2ccc(=O)n(O)c2c1 [Example 13, 7-Methyl-1-hydroxyquinol-2(1H)-one]	980	94	97	61	97	–	–
O=c1ccc2c3ccccc3ccc2n1O [Example 14, 5,6-Benzo-1-hydroxyquinol-2(1H)-one]	840	–	–	–	–	–	–
O=c1c2ccccc2c2ccccc2n1O [Example 15, 3,4-Benzo-1-hydroxyquinol-2(1H)-one]	2500	96	98	13	60	–	–
CC(C)c1cc2ccccc2n(O)c1=O [Example 16, 3-Isopropyl-1-hydroxy-quinol-2(1H)--one]	–	93	98	40	93	–	–
O=c1c2ccccc2ccn1O [Example 27, 2-hydroxyquinol-1(2H)-one]	6000	–	–	–	–	–	–
O=c1c2ccccc2cc(O)n1O [Example 28, 2,3-Dihydroxyquinol-1(2H)-one]	–	–	–	–	–	54	–
O=c1c2ccccc2c(Br)cn1O [Example 29, 4-Bromo-2-hydroxyquinol-1(2H)-one]	2600	89	96	43	94	–	–
O=c1c2ccccc2c([N+](=O)[O-])cn1O [Example 30, 4-Nitro-2-hydroxyquinol-1(2H)-one]	–	54	83	10	12	–	32
O=c1c2ccccc2c(-c2ccccc2)cn1O [Example 31, 4-Phenyl-2-hydroxyquinol-1(2H)-one]	450	95	99	14	50	–	–
Cc1cn(O)c(=O)c2ccccc12 [Example 32, 4-Methyl-2-hydroxy-quinol-1(2H)-one]	3900	–	–	–	–	–	–
Cc1cccc2c(=O)n(O)ccc12 [Example 33, 5-Methyl-2-hydroxyquinol-2(1H)-one]	2400	–	–	–	–	–	–
COc1ccc2ccn(O)c(=O)c2c1 [Example 34]	2500	90	98	20	45	–	–
O=c1c2ccccc2c(-c2ccccc2)c(-c2ccccc2)n1O [Example 35]	1500	–	–	–	–	–	–
